Laboratory results as given in patent US9474744B2, “Beta-lactam compounds for treating diabetes” (STEM CELL MEDICINE LTD., priority 2011, dated 2016).
Entries after “also recorded” stand apart in the source; their conditions may differ.

Assays:
CD4+ human T cells = assay: Real-time PCR verification of six gene-array genes; assay type: cell-based; conditions: cDNA from the same RNA as the gene array; normalised to B2M
Description: To verify the results of the gene array, we synthesized real-time PCR primers (designed with the […]® probe design software (Roche)). Real-time PCR of 6 selected genes was performed using a […]® (Roche, Basel, Switzerland). RNA was reverse transcribed to cDNA from 1 μg of total RNA, which was then subjected to quantitative RT-PCR performed essentially according to the manufacturer's instructions. Specific primer pairs were used to amplify specific genes in the presence of 3 mM MgCl2. PCR was performed in triplicate in a total volume of 20 μl of […]® HotStart DNA SYBR Green I mix (Roche) containing primer and 5 μl of cDNA. […] Denaturation was performed for 15 s at 95° C., annealing was performed in 60° C., and the extension was performed at 72° C. for 20 s, with fluorescence detection at 72° C. after each cycle. After the final cycle, melting point analyses of all samples were performed within the range of 62-95° C. with continuous fluorescence detection. […]
The Human Autoimmune and Inflammatory Response Gene Array (SuperArray Bioscience corporation, Frederick, Md., USA) was used for analysis of gene expression by the T cells. […] To verify the results detected by the gene array study, a panel of six genes was designed and tested by real-time PCR: CCR4, ACVR2, JAK1, STAT4, TLR2 and NFKBIE. […]

[1] = tested on: active experimental autoimmune encephalomyelitis (EAE) in Lewis rats; assay: Actively induced EAE in rats, oral antibiotic treatment; assay type: in vivo, rat; conditions: oral cefuroxime Axetil in drinking water from day 7 post-induction, 50 mg/kg daily, versus the two control groups
[2] = tested on: Adjuvant Arthritis (AA) in Lewis rats; assay: Adjuvant arthritis (AA) in rats, IP antibiotic treatment; assay type: in vivo, rat; conditions: IP 5 mg (25 mg/kg) once every 2 or 3 days from day 12; versus non-injected control
NOD mice = assay: Development of autoimmune diabetes in NOD mice; assay type: in vivo, mouse
From the text: Inbred female Lewis rats and NOD (non-obese diabetic) mice were supplied by the animal breeding center of the Weizmann Institute of Science, Israel, under the supervision of Harlan Laboratories and were used at 2-3 months of age. Experiments were approved by the Institutional Animal Care and Use Committee. Human peripheral blood lymphocytes from healthy donors were obtained from the blood bank of Sheba Medical Center, Tel Hashomer, Israel.
NOD mice spontaneously develop diabetes mellitus similar to type I diabetes in humans. […] The mice were followed for the development of diabetes, marked by blood sugar above 300 mg/dl on 2 measurements.

[3] = molecular target: T1, albumin of human CD3 T cells (Homo sapiens, UniProt P02768); assay: Western blot with Pen 9 antibody of antibiotic-treated human T cells; assay type: cell-based; conditions: T cells activated by mitogen in presence of antibiotic
T1 construct: endogenous in cells; host or cells: primary human peripheral-blood T cells (CD3+, CD4+ or CD8+) from healthy donors
T1 sequence (P02768 25-609): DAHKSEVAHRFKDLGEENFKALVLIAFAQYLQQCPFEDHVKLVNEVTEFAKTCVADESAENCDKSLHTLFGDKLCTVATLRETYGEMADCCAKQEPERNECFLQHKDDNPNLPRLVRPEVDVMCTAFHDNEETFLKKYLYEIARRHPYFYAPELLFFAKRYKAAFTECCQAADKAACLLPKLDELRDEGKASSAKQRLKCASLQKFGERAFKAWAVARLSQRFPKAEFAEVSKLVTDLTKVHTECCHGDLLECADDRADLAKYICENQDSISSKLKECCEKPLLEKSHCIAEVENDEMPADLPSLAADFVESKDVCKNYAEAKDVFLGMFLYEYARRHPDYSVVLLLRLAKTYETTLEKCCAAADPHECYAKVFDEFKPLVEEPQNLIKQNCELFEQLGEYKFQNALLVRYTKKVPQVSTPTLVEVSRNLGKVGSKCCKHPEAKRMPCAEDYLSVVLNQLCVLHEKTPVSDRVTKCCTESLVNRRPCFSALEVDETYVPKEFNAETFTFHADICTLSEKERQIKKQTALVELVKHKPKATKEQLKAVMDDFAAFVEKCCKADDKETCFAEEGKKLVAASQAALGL
Description: Rat tissues were ground with a tissue grinder in lysis buffer. The homogenate was centrifuged 14000 g for 15 min in 4° C. and the supernatant was used for western blotting. The protein concentration was determined using the BIO-RAD DC™ protein assay (Bio-Rad laboratories, Hercules, Calif.). Following electrophoresis in SDS gel in a mini-gel apparatus (Bio-Rad), the gels were electro-transferred to nitrocellulose membranes (Schleicher and schuell, Dassel, Germany). The nitrocellulose membranes were washed with distilled water for 5 min, and then blocked for 60 min. using a blocking solution composed of 2% bovine serum albumin (Fraction V, Sigma, St. Louis Mo.), 2.5% milk powder (Bio-Rad), Tris (Sigma) pH 7.5 10 mM, NaCl 150 mM and 0.02% thimerosal (Sigma). After 3×10 min. washes in PBS/TWEEN® 20 (PBS/T; 0.02%, Sigma), primary antibodies (1/1000) were incubated with the membranes in PBS/TWEEN® for 60 min. Following another series of washes in PBS/T (3×10 min), the membranes were incubated with a secondary antibody (Peroxidase conjugated anti rabbit or anti mouse, IgG Jackson ImmunoResearch, West Grove, Calif.) at a 1/2500 dilution in 2% milk in PBS solution for 60 min. After another 3×10 min washes, the membranes were incubated with the ECL reagent (for 60 seconds) and exposed to X-ray film.

Pen 9 reactivity with lysates of antibiotic-treated T cells [3]	SMILES	expression of CCR4, ACVR2, JAK1, STAT4, TLR2 and NFKBIE by real-time PCR (CD4+ human T cells)	severity of active EAE [1]	arthritis scores [2]	development of type I diabetes in NOD mice (NOD mice; FIG. 1D)	incidence of diabetes (NOD mice; at 5.7 months, s.c. at weekly intervals, ampicillin 1300 μg or ceftriaxone 675 μg per mouse, blood sugar above 300 mg/dl on 2 measurements, control 60%) [%]
	CO/N=C(\C(=O)N[C@@H]1C(=O)N2C(C(=O)O)=C(COC(N)=O)CS[C@H]12)c1ccco1 [cefuroxime]	suppressed	significantly more severe EAE; also recorded: increases the severity of actively induced EAE	significantly more severe arthritis scores; also recorded: Exacerbation of adjuvant-induced arthritis		
did not bind	CC1(C)S[C@@H]2[C@H](NC(=O)[C@H](N)c3ccccc3)C(=O)N2[C@H]1C(=O)O [ampicillin]				Inhibition of type I diabetes	30
